Laboratory results from patent US5955055A, “Synthetic peptides for arterial imaging at vascular imaging sites” (New England Deaconess Hospital Corporation, priority 1995, dated 1999).
Ends that are not written are not given here.

What was measured:
[1] = Plasma decay of 125I-labelled synthetic peptide after injection into the marginal ear vein; assay type: in vivo, rabbit; conditions: at four hours
Protocol: Each labelled synthetic peptide preparation (containing, for example, 150 to 400 or more μCi of ^125 I-labelled peptide) in column elution buffer was injected into the marginal ear vein of the ballooned and healing New Zealand white rabbits or WHHL rabbits. Serial blood samples were obtained from the opposite ear during the ensuing 0-24 hours and were analyzed for radioactivity. The labelled peptide concentrations in the blood samples that were withdrawn over the first 10 minutes after injection were extrapolated to zero time to determine the time zero radioactivity in the calculation of average plasma radioactivity. […] Peptides SP15a, SP17, SP19a, SP21a, SP28, SP34a, and SP30 were cleared rapidly from the plasma with half-lives of about one minute or less; after one hour, the plasma levels were less than 10% of the injected dose and fell by an additional 1% over the next three hours. Peptides SP15a, SP17, SP21a, SP28, SP34a, and SP30 leveled off to a plasma level of 3-6%; peptide SP19a cleared more quickly and leveled off to a concentration of 0.3% (at four hours).
Control peptides used were SP-2 (part of the heparin and LDL receptor binding site of apolipoprotein E) and SP-11A which is a receptor and heparin binding domain of apolipoprotein B. To compare the relative accumulation of the ^125 I-labelled synthetic peptides in the aorta and adrenal gland, it was necessary to correct for differences in mean plasma concentration of the labelled compounds. The mean concentration of synthetic peptide-associated ^125 I radioactivity was calculated by numerical integration of the plasma decay curves and division by the time since injection of the isotope.

anti-SP-4 antiserum = test: ELISA for immunological cross-reactivity with anti-SP-4 antiserum; assay type: binding, rabbit; conditions: ELISA plates coated with LDL or peptide, 100 ng per well
Protocol: To determine whether the molecular conformation or structure of the synthetic apoB peptides was analogous to the conformation of the apoB moiety of LDL, a polyclonal antiserum was raised to each peptide and its ability to bind LDL tested. Antiserum raised to human LDL was used as the control. To produce anti-synthetic peptide antisera, purified synthetic peptide was dissolved in PBS, pH 7.4 at a concentration of 1 mg/ml. The peptide solution was mixed with an equal volume of complete Freund's adjuvant and vortexed thoroughly until a thick emulsion was produced. New Zealand White rabbits (Millbrook Farms, Amherst, Mass.) were injected with a total of 0.5 mg synthetic peptide administered subcutaneously in the four dorsal quadrants. The rabbits were given a boost (injected at the same sites) with 0.5 mg peptide emulsified in incomplete Freund's adjuvant 2-3 weeks later. Eight to ten days after the first boost, the animals were given a second, identical boost and were bled of 30 ml 8 to 10 days later. To test for immunological cross-reactivity microtiter plates (Immulon II Dynatech Labs, Chantilly, Va.) were coated with the purified synthetic peptide or LDL by an overnight incubation at 4° C. with 100 ng peptide per well in 50 mM carbonate, pH 9.6, and blocked for nonspecific binding with an additional overnight incubation with phosphate-buffered saline, pH 7.4 (PBS), 1% bovine serum albumin (BSA). Control wells were coated with BSA alone. After washing twice with PBS, the wells were filled with serial dilutions (1:10 to 1:100,000 made in PBS, 3% BSA) of a rabbit polyclonal antibody generated against the synthetic peptide(s) and incubated for 45 minutes at room temperature. Following thorough washing (3× with PBS, 0.1% BSA), the wells were filled with a 1:2000 dilution of goat anti-rabbit IgG-horseradish peroxidase conjugate (Atlantic Antibodies, Scarborough, Me.). After a final wash, the wells were filled with 3,3'-5,5'-tetramethybenzidine (TMB) microwell peroxidase substrate (Kirkegaard and Perry Labs, Gaithersburg, Md.) and read at 650 nm every two minutes on an ELISA-5 automated plate reader (Physica, New York, N.Y.). Results (see, e.g., FIGS. 4 and 5) are expressed as the initial velocity of substrate conversion (change in OD650 /hr), which is determined by a linear regression of 15 data points per well. Each data point represents the average of three measured data points from the same plate, run at the same time.

Substance | Plasma level at which the peptide leveled off [1] | Binding of anti-SP-4 antiserum to coated antigen (anti-SP-4 antiserum)
Ac-YAKFRETLEDTRDRMY-NH2 [SP-15a, CH3 CONH-Tyr-Ala-Lys-Phe-Arg-Glu-Thr-Leu-Glu-Asp-Thr-Arg-Asp-Arg-Met-Tyr-CONH2] | 3-6% | 
Ac-YKLALEAARLLADAEGAK-NH2 [SP-6A, CH3 CONH-Tyr-Lys-Leu-Ala-Leu-Glu-Ala-Ala-Arg-Leu-Leu-Ala-Asp-Ala-Glu-Gly-Ala-Lys-CONH2] |  | shown to bind
Ac-YKLALEAARLLANAEGAK-NH2 [SP-8A, CH3 CONH-Tyr-Lys-Leu-Ala-Leu-Glu-Ala-Ala-Arg-Leu-Leu-Ala-Asn-Ala-Glu-Gly-Ala-Lys-CONH2] |  | shown to bind
Ac-YRALVDTEFKVKQEAGAK-NH2 [SP-21a, CH3 CONH-Tyr-Arg-Ala-Leu-Val-Asp-Thr-Glu-Phe-Lys-Val-Lys-Gln-Glu-Ala-Gly-Ala-Lys-CONH2] | 3-6% | 
Ac-YRALVDTLK-NH2 [SP-14A, CH3 CONH-Tyr-Arg-Ala-Leu-Val-Asp-Thr-Leu-Lys-CONH2] |  | shown to bind
Ac-YRALVDTLKFVTEQAKGA-NH2 [SP-19a, CH3 CONH-Tyr-Arg-Ala-Leu-Val-Asp-Thr-Leu-Lys-Phe-Val-Thr-Glu-Gln-Ala-Lys-Gly-Ala-CONH2] | 0.3% | 
Ac-YRALVDTLKFVTQAEGAK-NH2 [SP-4A, CH3 CONH-Tyr-Arg-Ala-Leu-Val-Asp-Thr-Leu-Lys-Phe-Val-Thr-Gln-Ala-Glu-Gly-Ala-Lys-CONH2] |  | shown to bind
Ac-YRALVDYLKFVTQL-NH2 [SP-12A, CH3 CONH-Tyr-Arg-Ala-Leu-Val-Asp-Tyr-Leu-Lys-Phe-Val-Thr-Gln-Leu-CONH2] |  | shown to bind
Ac-YVLDEFREKLNEELEALKQK-NH2 [SP-34a] | 3-6% | 
YAALDLNAVANKIADFEL-NH2 [SP-17, H2 N-Tyr-Ala-Ala-Leu-Asp-Leu-Asn-Ala-Val-Ala-Asn-Lys-Ile-Ala-Asp-Phe-Glu-Leu- CONH2] | 3-6% | 
YKLALEAARLLADAEGAK-NH2 [SP-6, H2 N-Tyr-Lys-Leu-Ala-Leu-Glu-Ala-Ala-Arg-Leu-Leu-Ala-Asp-Ala-Glu-Gly-Ala-Lys- CONH2] |  | shown to bind
YKLALEAARLLANAEGAK-NH2 [SP-8, H2 N-Tyr-Lys-Leu-Ala-Leu-Glu-Ala-Ala-Arq-Leu-Leu-Ala-Asn-Ala-Glu-Gly-Ala-Lys- CONH2] |  | shown to bind
YRALVDTLKFVTQAEGAK-NH2 [SP-4, NH2 -Tyr-Arg-Ala-Leu-Val-Asp-Thr-Leu-LYs-Phe-Val-Thr-Gln-Ala-Glu-Gly-Ala-Lys-CONH2] |  | shown to bind
YVGVAPGVGVAPGVGVAPG [SP-28, H2 N-Tyr-Val-Gly-Val-Ala-Pro-Gly-val-Gly-Val-Ala-Pro-Gly-Val-Gly-Val-Ala-Pro- Gly-OH] | 3-6% | 
YVPGVGVPGVGVPGVGVPGVG-NH2 [SP-30, H2 N-Tyr-Val-Pro-Gly-Val-Gly-Val-Pro-Gly-Val-Gly-Val-Pro-Gly-Val-Gly-Val-Pro- Gly-Val-Gly-CONH2] | 3-6% | 
